Measurements reported in patent publication US20050239873A1 (priority 1999, published 2005).
Like-named read-outs stand apart in the source and are kept apart here.

Experiments:
[1] = Stability in plasma; type: in vitro ADME, mouse; details: for stability: 37° C., 60 min
Description: (§1) For analysis of samples, two volumes of cold methanol-acetonitrile (50:50, v/v) were added to portions of plasma, culture medium, or cell extract. The preparations were mixed and then centrifuged to obtain clear supernatants, which were dried at room temperature by compressed air. The residues were dissolved in the mobile phase, and a portion was injected onto the HPLC column.
(§2) The HPLC equipment consisted of a Hewlett Packard 1050 ChemStation with a fluorescence detector (Agilent 100 series). […] The mobile phase was methanol:ammonium acetate buffer (87:13 v/v; 0.2 M; pH 5.8, adjusted with HCl). The flow rate was 1 ml/min. The column elute was monitored fluorometrically at an excitation wavelength of 232 nm and an emission wavelength of 418 nm. The amounts of test compounds present in samples were determined from the peak areas.
(§3) Samples of mouse, rat, dog, and human plasma were incubated at 37° C. with and without addition of NaF (2.5 mg/ml) and EDTA (1 mg/ml). To these preparations, 2-OMe antimycin A1, 2-OMe antimcyin A2, 2-OMe antimycin A3, or 2-OMe antimycin A5, dissolved in methanol, was added to final concentrations of 500 ng/ml. Portions of plasma, taken at selected times after addition of the 2-OMe antimycin analog, were extracted and analyzed.
(§4) Similarly, the stability of 2-OMe antimycin A1, 2-OMe antimycin A2, […] in the plasma from mice and humans was evaluated at −80° C. From these preparations, portions were analyzed immediately; other portions were stored at -80° C. and analyzed after 1, 2, and 4 weeks.

[2] = test system: NOD/SCID mice; experiment: In vivo toxicity, intravenous dosing
[3] = Stability in plasma; type: in vitro ADME, human; details: for stability: 37° C., 60 min
Description: as §1, §2, §3, §4

[4] = Pharmacokinetic evaluation in Fischer 344 rats; type: in vivo, rat; details: intravenous 0.25 mg/kg; for amount detectable in plasma: 2 hr after dosing; for amounts in the urine, livers, or kidneys: 24 hr after dosing
Description: Male Fischer 344 rats (five/group) were dosed via a lateral tail vein with either 2-OMe-A1 or 2-OMe-A3 (0.25 mg/kg) administered as a 1-min intravenous push. The dosing vehicle was the same as that used for mice. The dosing volume was 1.3 ml/kg. Blood samples were collected and analyzed. Further, samples of plasma, urine, livers, and kidneys were collected from rats kept in metabolism cages for 24 hr. To retard the breakdown of the test compounds, NaF+EDTA was present in the tubes used for collecting blood and urine and was added to tissue homogenates.
Pharmacokinetic values were derived with WinNonlin® software (Mountain View, Calif.).

[5] = test system: plasma proteins; experiment: Binding to plasma proteins (ultrafiltration); type: in vitro ADME, mouse; details: presence of NaF+EDTA, 1000 ng/ml
Description: Solutions of 2-OMe antimycin A3 were diluted with plasma (dog or human) containing NaF+EDTA to final concentrations of 1.0 or 0.2 μg/ml. Controls were diluted with water to the same final concentrations. These preparations were incubated at 37° C. for 20 min, at which time portions were taken and placed in the sample reservoirs of Amicon Centrifree® ultrafiltration systems (Millipore Co., Bedford, Mass.). At 37° C., the filter systems were centrifuged until the reservoirs were dry. From each filtrate, portions were taken for analysis by HPLC. The amounts present were designated as “free drug” (F). The concentrations of the unfiltered solutions were also determined by triplicate analyses. This amount represented the “total drug” concentration (T). The percentage of 2-OMe antimycin A3 bound to plasma proteins was calculated by the following formula: % bound=((T−F)/T)×100

[6] = test system: TABX2S cells (over-expressing Bcl-xL); experiment: cells
Description: Briefly, a DNA fragment encoding the full-length mouse BCl-xL cDNA was isolated from the plasmid PBS.BCL-xL (Tzung et al., Am. J. Path. 150:1985-1995, 1997, incorporated herein by reference in its entirety) by digestion with the restriction endonuclease EcoRI. This EcoRI fragment was cloned into the EcoRI site of the mammalian expression vector pSFFV (Fuhlbrigge et al., Proc. Nat. Acad. Sci. USA 85:5649-5653, 1988) in both sense and antisense orientations, to form expression plasmids pSFFV.Bcl-xL(sense) or pSFFV.Bcl-xL(antisense), respectively. The tumorigenic murine hepatocyte cell line TAMH was transfected by lipofection (Lipofectamine, Life Technologies, Rockville, Md., according to the manufacturer's recommendations) with the plasmids pSFFV.neo (the control), pSFFV.Bcl-xL(sense) or pSFFV.Bcl-xL(antisense). […] Transfectants were selected for the acquisition of neomycin resistance by growing cells in the presence of 750 μg/ml of G418. Bulk transfectants were cloned by limiting dilution and individual clones were screened by immunoblot analysis to determine the level of BCl-xL protein expression as described below.
Selected transfectants were then tested for whole cell sensitivity to several apoptotic agents. Transfected cells were cultured to reach approximately 80% confluency prior to plating an equal number of cells from selected clones on 12-well tissue culture plates. The transplanted cells were treated with the following apoptotic agents: 5 μM doxorubicin for 48 hours; 5 μM cisplatin for 48 hours; or with 200 U/ml tumor necrosis factor (TNF) plus 1 μg/ml actinomycin D for 18 hours. Cell viability was determined by trypan blue dye exclusion. The percentage of viable cells was calculated by the number of viable cells (treated with a particular apoptogenic agent) divided by the number in the control group (untreated).
TABX2S cells and TABX1A cells were also examined for the effects of various mitochondrial inhibitors. […] Azide was diluted from an aqueous stock solution. […] Controls received an equivalent concentration of diluent. At various time points after drug treatment, cells were trypsinized, and cell viability was determined by trypan blue dye exclusion. The number of viable cells were counted and normalized to control group (i.e., % control=number of viable cells (treated group)/number of viable cells (control group)×100).

[7] = test system: mitochondria from TABX2S cells (high levels of Bcl-xL); experiment: JC-1 membrane potential of isolated mitochondria; set-up: species or system murine
Description: Isolated mitochondria were loaded with JC-1 prior to treatment, and mitochondrial labeling was determined using FACS. […] Antimycin A-treated mitochondria with high levels of Bcl-xL had lower levels of JC-1 staining than parallel samples treated with CCCP. Uncoupled mitochondria still retain a significant Donnan potential because of trapped anionic species and it is likely that antimycin-induced PT and/or swelling of mitochondria led to a further reduction of this residual potential.
As observed for the parent compound, antimycin A3, mitochondria with normal levels of BCl-xL expression were not affected by the 2-methoxy analog.

CCCCCC[C@H]1C(=O)O[C@H](C)[C@H](NC(=O)c2cccc(NC=O)c2OC)C(=O)O[C@@H](C)[C@@H]1OC(=O)CC(C)C [2-OMeA1, 2-methoxy antimycin A1]
stability ([1]; presence of NaF/EDTA): substantially stable | amounts remaining after 4 weeks ([1]; -80° C., presence of NaF/EDTA): 96% | amounts remaining after 4 weeks ([1]; −80° C., absence of NaF/EDTA): 78% | histologic examinations of normal tissues ([2]; 10 mg/kg): No cellular injury or inflammation | reformation of antimycin A1 in plasma ([2]; preliminary LC/MS analyses of plasma after administration): have not demonstrated reformation | mice survived without apparent toxicity ([2]; three intravenous doses of 10 mg/kg on alternate days): 6 of 6 | adverse effects ([2]; treated tumor-bearing mice, 10 mg/kg): No adverse effects | stability ([3]; presence of NaF/EDTA): moderately stable | amounts remaining after 4 weeks ([3]; -80° C., presence of NaF/EDTA): 93% | amounts remaining after 4 weeks ([3]; −80° C., absence of NaF/EDTA): 86% | amount detectable in plasma [4]: little or no | amounts in the urine, livers, or kidneys [4]: little or no detectable amounts | AUC [4]: 47 ng·h/mL | Cmax [4]: 970 ng/mL | MRT [4]: 3.3 min | T1/2 [4]: 2.3 min | Vss [4]: 0.29 mL/g | Protein binding, Mouse [5]: 99.0%

2-methoxy antimycin A [2-OMeA]
mice died ([2]; intravenous 20 mg/kg): Three of six

antimycin A
survival ([6]; 2 μg/ml, supplemented with fructose, six hours): 33% | time until cell death readily apparent ([6]; after addition to the cell culture): ≤ 2 h | decrease in ΔΨm (JC-1) ([7]; vs control mitochondria (TABX1A)): much greater decrease in ΔΨm

CCCC[C@H]1C(=O)OC(C)[C@H](NC(=O)c2cccc(NC=O)c2OC)C(=O)O[C@@H](C)C1OC(=O)CC(C)C (some centres unmarked) [2-OMeA3, Antimycin A3 methyl ether]
cytotoxicity for cells over-expressing Bcl-xL vs control cells ([6]; TABX2S vs TAMH.neo and TABX1A): selective cytotoxicity | stability ([1]; presence of NaF/EDTA): notable decreases in concentration | amounts remaining after 4 weeks ([1]; -80° C., presence of NaF/EDTA): 90% | amounts remaining after 4 weeks ([1]; −80° C., absence of NaF/EDTA): 45% | stability ([3]; presence of NaF/EDTA): notable decreases in concentration | amounts remaining after 4 weeks ([3]; -80° C., presence of NaF/EDTA): 95% | amounts remaining after 4 weeks ([3]; −80° C., absence of NaF/EDTA): 73% | mitochondrial depolarization (JC-1) ([7]; 2 μg/ml): strongly depolarized | amount detectable in plasma [4]: little or no | amounts in the urine, livers, or kidneys [4]: little or no detectable amounts | half-life ([4]; male, Fischer 344, rat, plasma): 1 min | AUC ([4]; male, Fischer 344, rat, plasma, read-out: AUC): 18 ng·h/mL | Cmax ([4]; male, Fischer 344, rat, plasma, read-out: Cmax): 920 ng/mL | MRT ([4]; male, Fischer 344, rat, plasma, read-out: MRT (converted)): 1.4 min | Vd ([4]; male, Fischer 344, rat, plasma, read-out: Vss): 0.37 L/kg | Protein binding, Mouse [5]: 99.1%
